Data: article PMC6099940, “Design, Synthesis and Biological Evaluation of Novel Phenylsulfonylurea Derivatives as PI3K/mTOR Dual Inhibitors” (Molecules : A Journal of Synthetic Chemistry and Natural …, 2018)
Read-outs that look alike come from different tables or passages of the source.

Tests used:
[1] = test system: A549; experiment: In vitro cytotoxicity, MTT assay, A549; assay type: cell-based; details: A549 cells, 72 h, average of two separate determinations
[2] = target: mTOR (Homo sapiens, UniProt P42345); experiment: mTOR kinase assay (Kinase-Glo Luminescent Kinase Assay); assay type: biochemical; details: 10 µM ATP, 60 min, average of two determinations
[3] = test system: HepG-2; experiment: In vitro cytotoxicity, MTT assay, HepG-2; assay type: cell-based; details: 72 h, average of two separate determinations
[4] = test system: PC-3; experiment: In vitro cytotoxicity, MTT assay, PC-3; assay type: cell-based; details: PC-3 cells, 72 h, average of two separate determinations
[5] = target: PI3Kα (Homo sapiens, UniProt P42336); experiment: PI3Kα kinase assay (Kinase-Glo Luminescent Kinase Assay); assay type: biochemical; details: 1 µM ATP, 60 min, average of two determinations
Sequence of PI3Kα (P42336 whole entry): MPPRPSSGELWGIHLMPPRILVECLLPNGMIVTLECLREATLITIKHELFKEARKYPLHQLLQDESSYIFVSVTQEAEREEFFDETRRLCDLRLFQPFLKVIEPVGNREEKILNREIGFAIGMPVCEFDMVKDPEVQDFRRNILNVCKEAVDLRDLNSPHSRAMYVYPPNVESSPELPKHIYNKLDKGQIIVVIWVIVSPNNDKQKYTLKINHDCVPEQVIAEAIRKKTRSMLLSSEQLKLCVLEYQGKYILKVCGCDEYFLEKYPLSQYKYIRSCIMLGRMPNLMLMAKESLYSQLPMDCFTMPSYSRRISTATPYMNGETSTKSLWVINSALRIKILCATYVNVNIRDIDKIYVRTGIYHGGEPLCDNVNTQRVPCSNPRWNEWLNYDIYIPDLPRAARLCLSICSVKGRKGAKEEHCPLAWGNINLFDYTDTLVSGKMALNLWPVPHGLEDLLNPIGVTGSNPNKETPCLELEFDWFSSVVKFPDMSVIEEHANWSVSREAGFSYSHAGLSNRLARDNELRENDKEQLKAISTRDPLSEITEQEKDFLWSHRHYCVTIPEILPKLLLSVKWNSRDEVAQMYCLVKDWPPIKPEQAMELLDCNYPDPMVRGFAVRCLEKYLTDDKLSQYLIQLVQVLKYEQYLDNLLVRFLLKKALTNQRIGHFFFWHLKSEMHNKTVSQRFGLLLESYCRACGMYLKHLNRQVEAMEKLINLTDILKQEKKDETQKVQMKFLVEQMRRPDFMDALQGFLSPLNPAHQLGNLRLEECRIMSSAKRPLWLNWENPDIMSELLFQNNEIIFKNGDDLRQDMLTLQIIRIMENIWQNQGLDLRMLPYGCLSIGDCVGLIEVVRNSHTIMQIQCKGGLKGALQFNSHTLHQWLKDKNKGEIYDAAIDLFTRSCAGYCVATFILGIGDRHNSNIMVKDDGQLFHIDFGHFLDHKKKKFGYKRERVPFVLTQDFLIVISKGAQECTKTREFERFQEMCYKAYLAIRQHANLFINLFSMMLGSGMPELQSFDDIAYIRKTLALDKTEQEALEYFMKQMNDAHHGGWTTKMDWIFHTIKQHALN
Sequence of PI3Kα (P27986 whole entry partner): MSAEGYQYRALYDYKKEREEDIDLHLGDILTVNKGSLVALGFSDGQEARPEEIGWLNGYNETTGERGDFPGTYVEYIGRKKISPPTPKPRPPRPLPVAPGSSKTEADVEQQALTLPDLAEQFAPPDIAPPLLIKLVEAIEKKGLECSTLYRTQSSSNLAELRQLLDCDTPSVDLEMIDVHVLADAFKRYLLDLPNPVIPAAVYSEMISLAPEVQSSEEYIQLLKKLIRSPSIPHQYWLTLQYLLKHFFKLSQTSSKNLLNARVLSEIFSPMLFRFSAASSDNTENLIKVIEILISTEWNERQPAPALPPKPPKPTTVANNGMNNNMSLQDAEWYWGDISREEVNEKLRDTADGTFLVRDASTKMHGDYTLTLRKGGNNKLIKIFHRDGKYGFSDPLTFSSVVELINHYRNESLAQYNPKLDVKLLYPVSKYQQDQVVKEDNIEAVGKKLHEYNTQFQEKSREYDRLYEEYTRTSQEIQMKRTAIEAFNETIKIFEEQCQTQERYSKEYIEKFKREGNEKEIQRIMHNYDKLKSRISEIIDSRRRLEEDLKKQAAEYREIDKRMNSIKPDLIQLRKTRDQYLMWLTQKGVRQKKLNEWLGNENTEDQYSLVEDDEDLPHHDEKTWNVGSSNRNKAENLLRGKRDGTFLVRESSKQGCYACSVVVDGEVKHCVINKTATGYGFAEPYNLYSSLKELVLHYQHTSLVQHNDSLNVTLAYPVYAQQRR

[6] = test system: MCF-7; experiment: In vitro cytotoxicity, MTT assay, MCF-7; assay type: cell-based; details: MCF-7 cells
[7] = Homo sapiens, HepG2, HepG-2 cells
[8] = Homo sapiens, MCF7, MTT, 72 h, average of two separate determinations, read-out: IC50 (µM) MCF-7

Row | SMILES | IC50 [2] | IC50 [5] | melting point | IC50 [1] | IC50 ([3]; HepG-2 cells) | IC50 [4] | IC50 ([6]; MTT, 72 h, average of two separate determinations, read-out: IC50 (µM) MCF-7) | IC50 ([6]; read-out: IC50 value against MCF-7 cell (conclusions text, unit inferred)) | IC50 ([1]; Homo sapiens) | IC50 [3, 7] | IC50 ([4]; Homo sapiens) | IC50 [6, 8]
1 | COc1ccc(Nc2c(NC(=O)NS(=O)(=O)c3ccc(F)cc3)cnc3ccc(Br)cc23)cc1 [20a, N-((6-Bromo-4-((4-methoxyphenyl)amino)quinolin-3-yl)carbamoyl)-4-fluorobenzenesulfonamide] | – | – | 289.1 to 290.2 °C | – | – | – | – | – | 26.3 ± 1.13 µM | 20.3 ± 1.04 µM | > 100 µM | 7.65 ± 0.88 µM
2 | COc1ccc(Nc2c(NC(=O)NS(=O)(=O)c3ccc(C)cc3)cnc3ccc(Br)cc23)cc1 [20c, N-((6-Bromo-4-((4-methoxyphenyl)amino)quinolin-3-yl)carbamoyl)-4-methylbenzenesulfonamide] | – | – | 279.2 to 280.6 °C | – | – | – | – | – | 23.4 ± 1.12 µM | 26.8 ± 1.22 µM | > 100 µM | 4.94 ± 0.64 µM
3 | O=C(Nc1cnc2ccc(Br)cc2c1Nc1ccc(Br)cc1)NS(=O)(=O)c1ccc(F)cc1 [21a, N-((6-Bromo-4-((4-bromophenyl)amino)quinolin-3-yl)carbamoyl)-4-fluorobenzenesulfonamide] | – | – | 278.7 to 279.5 °C | – | – | – | – | – | 59 ± 1.76 µM | 45.7 ± 1.66 µM | > 100 µM | 37.6 ± 1.57 µM
4 | Cc1ccc(S(=O)(=O)NC(=O)Nc2cnc3ccc(Br)cc3c2Nc2ccc(Br)cc2)cc1 [21c, N-((6-Bromo-4-((4-bromophenyl)amino)quinolin-3-yl)carbamoyl)-4-methylbenzenesulfonamide] | – | – | 279.6 to 280.2 °C | – | – | – | – | – | 22.7 ± 1.35 µM | 31.1 ± 1.49 µM | > 100 µM | 16.6 ± 1.22 µM
5 | COc1ccc(Nc2c(NC(=O)NS(=O)(=O)c3ccc(Cl)cc3)c(C)nc3ccc(OC)cc23)cc1 [23a, 4-Chloro-N-((6-methoxy-4-((4-methoxyphenyl)amino)-2-methylquinolin-3-yl)carbamoyl)benzenesulfonamide] | – | – | 290.8 to 291.2 °C | – | – | – | – | – | 39.8 ± 1.59 µM | 16 ± 1.1 µM | > 100 µM | 6.3 ± 0.79 µM
6 | COc1ccc(Nc2c(NC(=O)NS(=O)(=O)c3ccc(C(C)(C)C)cc3)c(C)nc3ccc(OC)cc23)cc1 [23b, 4-(tert-Butyl)-N-((6-methoxy-4-((4-methoxyphenyl)amino)-2-methylquinolin-3-yl)carbamoyl)benzenesulfonamide] | > 10 µM | > 10 µM | 291.2 to 292.7 °C | – | – | – | – | – | 7.47 ± 0.87 µM | 2.71 ± 0.43 µM | > 100 µM | 6.55 ± 0.81 µM
7 | COc1ccc2nc(C)c(NC(=O)NS(=O)(=O)c3ccc(F)cc3)c(Nc3ccc(Br)cc3)c2c1 [23c, N-((4-((4-Bromophenyl)amino)-6-methoxy-2-methylquinolin-3-yl)carbamoyl)-4-fluorobenzenesulfonamide] | – | – | 356.1 to 357.3 °C | – | – | – | – | – | 13 ± 0.84 µM | 32.1 ± 1.12 µM | 39.8 ± 1.25 µM | 25.4 ± 1.43 µM
8 | COc1ccc2nc(C)c(NC(=O)NS(=O)(=O)c3ccc(F)cc3)c(Nc3ccc(F)c(Cl)c3)c2c1 [23d, N-((4-((3-Chloro-4-fluorophenyl)amino)-6-methoxy-2-methylquinolin-3-yl)carbamoyl)-4-fluorobenzenesulfonamide] | – | – | 285.3 to 286.1 °C | – | – | – | – | – | 38.1 ± 0.96 µM | 6.08 ± 1.04 µM | 57.9 ± 0.99 µM | 57 ± 1.75 µM
9 | Cn1c(=O)n(-c2ccc(C(C)(C)C#N)cc2)c2c3cc(-c4cnc5ccccc5c4)ccc3ncc21 [NVP-BEZ235, reference compound] | – | – | – | – | – | – | – | – | 0.36 ± 0.86 µM | 0.54 ± 0.83 µM | 0.2 ± 0.11 µM | 0.14 ± 0.1 µM

More lines, main results first:

Row | IC50 [2] | IC50 [5] | melting point | SMILES | IC50 [1] | IC50 ([3]; HepG-2 cells) | IC50 [4] | IC50 ([6]; MTT, 72 h, average of two separate determinations, read-out: IC50 (µM) MCF-7) | IC50 ([6]; read-out: IC50 value against MCF-7 cell (conclusions text, unit inferred)) | IC50 ([1]; Homo sapiens) | IC50 [3, 7] | IC50 ([4]; Homo sapiens) | IC50 [6, 8]
10 | 2.62 µM | 0.72 µM | – | CC(C)(C#N)c1ccc(Nc2c(NC(=O)NS(=O)(=O)c3ccc(F)cc3)cnc3ccc(Br)cc23)cc1 [19a, N-((6-Bromo-4-((4-(2-cyanopropan-2-yl)phenyl)amino)quinolin-3-yl)carbamoyl)-4-fluorobenzenesulfonamide carboxamide] | 38.5 ± 1.04 µM | 33.3 ± 1.52 µM | 66.6 ± 1.28 µM | 3.88 ± 0.58 µM | 2.88 ± 0.58 µM | – | – | – | –
11 | – | – | 279.2 to 280.1 °C | CC(C)(C#N)c1ccc(Nc2c(NC(=O)NS(=O)(=O)c3ccc(Cl)cc3)cnc3ccc(Br)cc23)cc1 [19b, N-((6-Bromo-4-((4-(2-cyanopropan-2-yl)phenyl)amino)quinolin-3-yl)carbamoyl)-4-chlorobenzenesulfonamide] | – | – | – | – | – | > 100 µM | 30.2 ± 1.45 µM | 34.3 ± 1.32 µM | 15.1 ± 1.1 µM
12 | – | – | 289.2 to 290.4 °C | Cc1ccc(S(=O)(=O)NC(=O)Nc2cnc3ccc(Br)cc3c2Nc2ccc(C(C)(C)C#N)cc2)cc1 [19c, N-((6-Bromo-4-((4-(2-cyanopropan-2-yl)phenyl)amino)quinolin-3-yl)carbamoyl)-4-methylbenzenesulfonamide] | – | – | – | – | – | 29 ± 1.31 µM | 31.2 ± 1.5 µM | 40.6 ± 1.11 µM | 3.96 ± 0.59 µM
13 | – | – | 287.2 to 288.4 °C | CC(C)(C)c1ccc(S(=O)(=O)NC(=O)Nc2cnc3ccc(Br)cc3c2Nc2ccc(C(C)(C)C#N)cc2)cc1 [19d, N-((6-Bromo-4-((4-(2-cyanopropan-2-yl)phenyl)amino)quinolin-3-yl)carbamoyl)-4-(tert-butyl)benzenesulfonamide] | – | – | – | – | – | 30.6 ± 1.45 µM | > 100 µM | 68.2 ± 1.32 µM | 9.95 ± 0.99 µM
14 | – | – | 282.2 to 283.1 °C | COc1ccc(Nc2c(NC(=O)NS(=O)(=O)c3ccc(Cl)cc3)cnc3ccc(Br)cc23)cc1 [20b, N-((6-Bromo-4-((4-methoxyphenyl)amino)quinolin-3-yl)carbamoyl)-4-chlorobenzenesulfonamide] | – | – | – | – | – | 30.2 ± 1.23 µM | 22.6 ± 1.12 µM | > 100 µM | 10.7 ± 0.97 µM
15 | – | – | 263.3 to 264.2 °C | COc1ccc(Nc2c(NC(=O)NS(=O)(=O)c3ccc(C(C)(C)C)cc3)cnc3ccc(Br)cc23)cc1 [20d, N-((6-Bromo-4-((4-methoxyphenyl)amino)quinolin-3-yl)carbamoyl)-4-(tert-butyl)benzenesulfonamide] | – | – | – | – | – | 32.1 ± 1.18 µM | 33.2 ± 1.26 µM | > 100 µM | 10.5 ± 0.98 µM
16 | – | – | 284.1 to 285.4 °C | O=C(Nc1cnc2ccc(Br)cc2c1Nc1ccc(Br)cc1)NS(=O)(=O)c1ccc(Cl)cc1 [21b, N-((6-Bromo-4-((4-bromophenyl)amino)quinolin-3-yl)carbamoyl)-4-chlorobenzenesulfonamide] | – | – | – | – | – | 71.1 ± 1.85 µM | 11.1 ± 1.04 µM | > 100 µM | 13.8 ± 1.14 µM
17 | – | – | 259.4 to 260.3 °C | CC(C)(C)c1ccc(S(=O)(=O)NC(=O)Nc2cnc3ccc(Br)cc3c2Nc2ccc(Br)cc2)cc1 [21d, N-((6-Bromo-4-((4-bromophenyl)amino)quinolin-3-yl)carbamoyl)-4-(tert-butyl)benzenesulfonamide] | – | – | – | – | – | 16.2 ± 1.2 µM | 17 ± 1.22 µM | > 100 µM | 52.7 ± 1.72 µM
18 | – | – | 295.1 to 296.3 °C | O=C(Nc1cnc2ccc(Br)cc2c1Nc1ccc(F)c(Cl)c1)NS(=O)(=O)c1ccc(F)cc1 [22a, N-((6-Bromo-4-((3-chloro-4-fluorophenyl)amino)quinolin-3-yl)carbamoyl)-4-fluorobenzenesulfonamide] | – | – | – | – | – | 12 ± 0.91 µM | 19.63 ± 0.18 µM | 52.5 ± 1.03 µM | 22.8 ± 1.35 µM
19 | – | – | 282.3 to 283.7 °C | O=C(Nc1cnc2ccc(Br)cc2c1Nc1ccc(F)c(Cl)c1)NS(=O)(=O)c1ccc(Cl)cc1 [22b, N-((6-Bromo-4-((3-chloro-4-fluorophenyl)amino)quinolin-3-yl)carbamoyl)-4-chlorobenzenesulfonamide] | – | – | – | – | – | > 100 µM | 6.44 ± 0.89 µM | 17.7 ± 0.95 µM | 6.84 ± 0.83 µM
20 | – | – | 278.7 to 279.9 °C | Cc1ccc(S(=O)(=O)NC(=O)Nc2cnc3ccc(Br)cc3c2Nc2ccc(F)c(Cl)c2)cc1 [22c, N-((6-Bromo-4-((3-chloro-4-fluorophenyl)amino)quinolin-3-yl)carbamoyl)-4-methylbenzenesulfonamide] | – | – | – | – | – | > 100 µM | 11.3 ± 0.84 µM | 16.7 ± 0.88 µM | 16.8 ± 1.22 µM
21 | – | – | 290.1 to 291.6 °C | CC(C)(C)c1ccc(S(=O)(=O)NC(=O)Nc2cnc3ccc(Br)cc3c2Nc2ccc(F)c(Cl)c2)cc1 [22d, N-((6-Bromo-4-((3-chloro-4-fluorophenyl)amino)quinolin-3-yl)carbamoyl)-4-(tert-butyl)benzenesulfonamide] | – | – | – | – | – | 22.4 ± 1.21 µM | 28.4 ± 0.89 µM | 29.3 ± 2.23 µM | 46.3 ± 1.67 µM
